Test results taken from US8796259B2, “N3-heteroaryl substituted triazoles and N5-heteroaryl substituted triazoles useful as axl inhibitors” (Rigel Pharmaceuticals, Inc., priority 2006, dated 2014).

Each compound was assayed against T1, Axl (Homo sapiens, UniProt P30530) (assay: Phospho-Akt in-cell Western assay (inhibition of Axl activity, Axl-antibody cross-linking stimulation)). Conditions: Hela cells, phospho-Akt readout; compounds of formula (Ia), Table 1.
T1 construct: endogenous in cells; host or cells: HeLa cells
T1 sequence (P30530 26-894): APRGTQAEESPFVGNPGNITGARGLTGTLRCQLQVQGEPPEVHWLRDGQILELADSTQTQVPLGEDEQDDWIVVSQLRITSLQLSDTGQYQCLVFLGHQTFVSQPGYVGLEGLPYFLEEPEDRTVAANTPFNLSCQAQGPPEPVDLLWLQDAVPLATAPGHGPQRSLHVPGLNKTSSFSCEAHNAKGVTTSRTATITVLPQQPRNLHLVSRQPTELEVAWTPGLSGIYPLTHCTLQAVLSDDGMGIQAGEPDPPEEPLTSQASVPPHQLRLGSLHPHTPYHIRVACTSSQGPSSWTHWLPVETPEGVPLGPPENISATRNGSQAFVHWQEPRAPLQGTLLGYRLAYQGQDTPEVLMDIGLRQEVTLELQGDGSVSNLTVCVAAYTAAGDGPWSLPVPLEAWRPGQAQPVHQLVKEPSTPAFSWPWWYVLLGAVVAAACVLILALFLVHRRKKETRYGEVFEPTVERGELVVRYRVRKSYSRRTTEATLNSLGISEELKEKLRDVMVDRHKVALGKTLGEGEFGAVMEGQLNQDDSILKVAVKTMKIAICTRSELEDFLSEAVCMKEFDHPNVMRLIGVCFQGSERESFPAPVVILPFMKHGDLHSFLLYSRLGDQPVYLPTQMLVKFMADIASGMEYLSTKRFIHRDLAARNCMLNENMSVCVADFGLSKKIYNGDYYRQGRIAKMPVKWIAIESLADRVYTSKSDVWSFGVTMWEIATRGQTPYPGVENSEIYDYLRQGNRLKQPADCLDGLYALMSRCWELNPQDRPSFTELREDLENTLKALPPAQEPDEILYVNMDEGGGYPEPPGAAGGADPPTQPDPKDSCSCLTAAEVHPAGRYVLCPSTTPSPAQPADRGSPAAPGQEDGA
Type: cell-based
Experimental: The compounds of the invention were tested in the following assay for their ability to inhibit Axl activity.
Phospho-Akt in-Cell Western Assay
• Cell culture plate: 96 well assay plate (Corning 3610), white, clear bottom, tissue-culture treated. • Cells: Hela cells. • Starvation medium: For Axl stimulation: 0.5% FCS (fetal calf serum) in DMEM, plus Axl/Fc (extracellular domain of AXL fused to immunoglobulin Fc region) (R&D, 154-AL) 500 ng/mL. • For EGF (epidermal growth factor) stimulation: 0.5% FCS in DMEM (Dulbecco's modified Eagles medium). • Poly-L-Lysine 0.01% solution (the working solution): 10 μg/ml, dilute In PBS (phosphate buffered saline). • Axl antibody cross-linking: • 1st: Mouse anti-Axl (R&D, MAB154). • 2nd: Biotin-SP-conjugated AffiniPure goat anti-mouse IgG (H+L) (Jackson ImmunoResearch #115-065-003). • Fixing buffer: 4% formaldehyde in PBS. • Wash buffer: 0.1% TritonX-100 in PBS. • Quenching buffer: 3% H2O2, 0.1% Azide in wash buffer, Azide and hydrogen peroxide (H2O2) are added fresh. • Blocking buffer: 5% BSA in TBST (tris buffered saline plus 0.1% Tween 20). • Primary antibody: Rabbit anti-human Phospho-Akt antibody (Cell Signaling 9271): 1×250 diluted in blocking buffer. • Secondary antibody: HRP (horse radish peroxidase)-conjugated Goat anti-Rabbit secondary, stock solution: Jackson ImmunoResearch (Goat anti-Rabbit HRP, #111-035-144) 1:1 diluted in glycerol, store at −20° C. The working solution: 1×2000 dilution of stock in blocking buffer. • Chemiluminescent working solution (Pierce, 37030): SuperSignal ELISA (enzyme linked immunosorbant assay) Pico Chemiluminescent substrate. • Crystal Violet solution: Stock: 2.5% Crystal violet in methanol, filtered and kept at ambient temperature. The working solution: dilute the stock 1:20 with PBS immediately before use.
10% SDS: working solution: 5% SDS (sodium dodecylsulfate), diluted in PBS
A 96 well TC (tissue culture treated) plate was coated with 10 μg/mL poly-L-Lysine at 37° C. for 30 min, washed twice with PBS, and air-dried for 5 minutes before cells were added. Hela cells were seeded at 10,000 cells/well and the cells were starved in 100 μL starvation medium containing Axl/Fc for 24 hrs.
The cells were pre-treated with test compounds by adding 100 μL of 2× test compound to the starvation medium on the cells. The cells were incubated at 37° C. for 1 hr before stimulation.
The cells were stimulated by Axl-antibody cross-linking as follows: A 5×1st/2nd Axl antibody mixture was made (37.5 μg/mL 1st/100 μg/mL 2 nd) in starvation medium and nutated at 4° C. with thorough mixing for 1-2 hours for clustering. The resulting mix was warmed to 37° C. 50 μL of 5×Axl 1st/2nd of antibody cluster was added to the cells and the cells were incubated at 37° C. for 5 min.
After 5 minutes stimulation, the plate was flicked to remove medium and the plate was tapped onto paper towels. Formaldehyde (4.0% in PBS, 100 μL) was added to fix the cells and the cells were incubated at ambient temperature for 20 min without shaking.
The cells were washed with a plate washer buffer to remove the formaldehyde solution. The plate was flicked to removed excess wash buffer and tapped onto paper towels. Quenching buffer (100 μL) was added to each well and the cells were incubated at ambient temperature for 20 minutes without shaking.
The cells were washed with a plate washer buffer to remove the quenching buffer. Blocking buffer (100 μL) was added and the cells were incubated at ambient temperature for at least an hour with gentle shaking.
The cells were washed with a plate washer buffer and diluted primary antibody (50 μL) was added to each well (blocking buffer was added to the negative control wells instead). The plates were incubated overnight at 4° C. with gentle shaking.
The wash buffer was removed, diluted secondary antibody (100 μL) was added, and the cells were incubated at ambient temperature for 1 hour with gentle shaking. […]
In the case of Cc1csc2c(-n3nc(Nc4ccc(N5CCC(CN6CCCC6)CC5)nc4)nc3N)nc(Cl)nc12 [compound 33, 1-(2-chloro-7-methylthieno [3,2-d]pyrimidin-4-yl)-N^3-(6-(4-(pyrrolidin-1-ylmethyl)piperidin-1-yl)pyridin-3-yl)-1H-1,2,4-triazole-3,5-diamine], the IC50 is reported as < 1 µM. For Cc1csc2c(-n3nc(Nc4cnc5c(c4)CC(NC(=O)C4CCN(C)CC4)CC5)nc3N)ncnc12 (stereo not shown) [compound 98], the IC50 was < 1 µM. With CCN(CC)C1CCN(c2ccc(Nc3nc(N)n(-c4ncnc5cc(OC)c(OC)cc45)n3)cn2)C1 (stereo not shown) [compound 45, 1-(6,7-dimethoxy-quinazoline-4-yl)-N^3-(6-(3-diethyl-amino-pyrrolidin-1-yl)pyridin-3-yl)-1H-1,2,4-triazole-3,5-diamine] the IC50 was < 1 µM. Cc1csc2c(-n3nc(Nc4ccc(C=CCN5CCC(N6CCN(C)CC6)CC5)nc4)nc3N)ncnc12 [compound 128, 1-(7-methylthieno [3,2-d]pyrimidin-4-yl)-N^3-(2-(3-(4-(4-methyl-piperazin-1-yl)piperidin-1-yl)propen-1-yl)pyridin-5-yl)-1H-1,2,4-triazole-3,5-diamine] was tested, and the IC50 was < 1 µM. For Cc1csc2c(-n3nc(Nc4cnc5c(c4)CCN(C4CCCC4)CC5)nc3N)nc(Cl)nc12 [compound 12, 1-(2-chloro-7-methylthieno [3,2-d]pyrimidine-4-yl)-N^3-(7-cyclopentyl-6,7,8,9-tetrahydro-5H-pyrido [3,2-d]azepin-3-yl)-1H-1,2,4-triazole-3,5-diamine], the IC50 was 1 to 10 µM. Cc1csc2c(-n3nc(Nc4ccc(C=CCN5CCN(C6CCCC6)CC5)nc4)nc3N)ncnc12 [compound 125, 1-(7-methylthieno [3,2-d]pyrimidin-4-yl)-N^3-(2-(3-(4-cyclopentyl-piperazin-1-yl)propen-1-yl)pyridin-5-yl)-1H-1,2,4-triazole-3,5-diamine] was tested, and the IC50 was < 1 µM. With Nc1nc(Nc2ccc(N3CCN(CC4CC4)CC3)nc2)nn1-c1ccc(C(F)(F)F)cn1 [compound 49, 1-(5-trifluoro-methylpyridin-2-yl)-N^3-(6-(4-cyclopropyl-methyl-piperazin-1-yl)pyridin-3-yl)-1H-1,2,4-triazole-3,5-diamine] the IC50 was < 1 µM. With Cc1csc2c(-n3nc(Nc4cnc5c(c4)CN(C4CCCC4)CC5)nc3N)nc(Cl)nc12 [compound 52, 1-(2-chloro-7-methylthieno [3,2-d]pyrimidine-4-yl)-N^3-(6-cyclopentyl-5,6,7,8-tetrahydro-1,6-naphthyridin-3-yl)-1H-1,2,4-triazole-3,5-diamine] the IC50 was < 1 µM. In the case of Cc1csc2c(-n3nc(Nc4cnc(N5CCC(N6CCCC6)CC5)nc4)nc3N)nc(Cl)nc12 [compound 91, 1-(2-chloro-7-methylthieno [3,2-d]pyrimidin-4-yl)-N^3-(2-(4-pyrrolidin-1ylpiperidin-1-yl)pyrimidin-5-yl)-1H-1,2,4-triazole-3,5-diamine], the IC50 is reported as < 1 µM. In the case of CN1CCc2ncc(Nc3nc(N)n(-c4nccc5ccccc45)n3)cc2C1 [compound 16, 1-(isoquinolin-1-yl)-N^3-(6-methyl-5,6,7,8-tetrahydro-1,6-naphthyridin-3-yl)-1H-1,2,4-triazole-3,5-diamine], the IC50 is reported as < 1 µM. Nc1nc(Nc2ccc3oc(CN4CCCC4)nc3c2)nn1-c1ncnc2ccc(Cl)cc12 [compound 2, 1-(6-chloro-quinazolin-4-yl)-N^3-(2-(pyrrolidin-1-ylmethyl)benzo [d]oxazol-5-yl)-1H-1,2,4-triazole-3,5-diamine] showed an IC50 of 1 to 10 µM. Work on Cc1csc2c(-n3nc(Nc4cnc5c(c4)CN(Cc4ccccc4)CC5)nc3N)nc(Cl)nc12 [compound 18, 1-(2-chloro-7-methylthieno [3,2-d]pyrimidine-4-yl)-N^3-(6-benzyl-5,6,7,8-tetrahydro-1,6-naphthyridin-3-yl)-1H-1,2,4-triazole-3,5-diamine] yielded an IC50 of 10 to 20 µM. Work on Cc1csc2c(-n3nc(Nc4cnc(N5CCN([C@H]6CC7CCC6C7)CC5)c(Cl)c4)nc3N)nc(Cl)nc12 (stereo partly drawn) [compound 109, 1-(2-chloro-7-methylthieno [3,2-d]pyrimidin-4-yl)-N^3-(2-(4-(2S)-bicyclo[2.2.1]heptan-2-ylpiperazin-1-yl)-3-chloropyridin-5-yl)-1H-1,2,4-triazole-3,5-diamine] yielded an IC50 of 1 to 10 µM. In the case of COc1cc2ncnc(-n3nc(Nc4cnc5c(c4)CCN(C4CCCC4)CC5)nc3N)c2cc1OC [compound 13, 1-(6,7-dimethoxy-quinazoline-4-yl)-N^3-(7-cyclopentyl-6,7,8,9-tetrahydro-5H-pyrido[3,2-d]azepin-3-yl)-1H-1,2,4-triazole-3,5-diamine], the IC50 is reported as < 1 µM. In the case of COc1cc2ncnc(-n3nc(Nc4ccc(N5CCN(C6CC7CCC6C7)CC5)nc4)nc3N)c2cc1OC (stereo not shown) [compound 6, 1-(6,7-dimethoxy-quinazoline-4-yl)-N^3-(6-(4-(bicyclo[2.2.1]heptan-2-yl)piperazin-1-yl)pyridin-3-yl)-1H-1,2,4-triazole-3,5-diamine], the IC50 is reported as < 1 µM. Cc1csc2c(-n3nc(Nc4ccc(C=CCN5CCOCC5)nc4)nc3N)ncnc12 [compound 126, 1-(7-methylthieno [3,2-d]pyrimidin-4-yl)-N^3-(2-(3-(morpholin-4-yl)propen-1-yl)pyridin-5-yl)-1H-1,2,4-triazole-3,5-diamine] was tested, and the IC50 was < 1 µM. In the case of Cc1cc(Nc2nc(N)n(-c3ncnc4c(C)csc34)n2)cnc1N1CCN(CC2CC2)CC1 [compound 94, 1-(7-methylthieno [3,2-d]pyrimidine-4-yl)-N^3-(6-(4-(cyclopropyl-methyl)piperazin-1-yl)-5-methyl-pyridine-3-yl)-1H-1,2,4-triazole-3,5-diamine], the IC50 is reported as < 1 µM. With Cc1csc2c(-n3nc(Nc4cnc5c(c4)CC(NC4CC6CCC4C6)CC5)nc3N)nc(Cl)nc12 (stereo not shown) [compound 103, 1-(2-chloro-7-methylthieno [3,2-d]pyrimidin-4-yl)-N^3-(6-bicyclo[2.2.1]heptan-2-yl-amino-5,6,7,8-tetrahydro-quinolin-3-yl)-1H-1,2,4-triazole-3,5-diamine] the IC50 was < 1 µM. With Cc1csc2c(-n3nc(Nc4ccc(N5CCN(C)CC5)nc4)nc3N)nc(Cl)nc12 [compound 15, 1-(2-chloro-7-methylthieno [3,2-d]pyrimidine-4-yl)-N^3-(6-(4-methyl-piperazin-1-yl)pyridin-3-yl)-1H-1,2,4-triazole-3,5-diamine] the IC50 was < 1 µM.
